In ChEMBL document CHEMBL5042539, “Structure-Guided Discovery of the Novel Covalent Allosteric Site and Covalent Inhibitors of Fructose-1,6-Bisphosphate Aldolase to Overcome the Azole Resistance of Candidiasis” (J Med Chem, 2022):
≈ marks a conversion by molar mass, not a printed value.

Columns and labels:
[1] = Toxicity in po dosed rat assessed as lethal dose; format: organism-based; conditions: in vivo
Candida albicans [2] = assay: Antifungal activity against fluconazole resistant Candida albicans 7781 incubated for 48 hrs by CLSI based broth microdilution method; format: functional
Candida albicans [3] = assay: Selectivity ratio of IC50 for inhibition of Candida albicans Fructose-1,6-Bisphosphate Aldolase C292S mutant to IC50 for inhibition of wild type Candida albicans Fructose-1,6-Bisphosphate Aldolase
Candida albicans [4] = assay: Antifungal activity against fluconazole resistant Candida albicans 103 incubated for 48 hrs by CLSI based broth microdilution method; format: functional
[5] = Cytotoxicity against human HaCaT cells; format: toxicity, cell-based
[6] = Inhibition of wild type Candida albicans Fructose-1,6-Bisphosphate Aldolase transfected in Escherichia coli BL21 (DE3) incubated for 3 mins in presence of NADH by spectrophotometric analysis
[7] = Inhibition of Candida albicans Fructose-1,6-Bisphosphate Aldolase C157S mutant transfected in Escherichia coli BL21 (DE3) incubated for 3 mins in presence of NADH by spectrophotometric analysis
Candida albicans [8] = assay: Antifungal activity against Candida albicans SC5314 incubated for 48 hrs by CLSI based broth microdilution method; format: functional
[9] = Inhibition of Candida albicans Fructose-1,6-Bisphosphate Aldolase C111S mutant transfected in Escherichia coli BL21 (DE3) incubated for 3 mins in presence of NADH by spectrophotometric analysis
[10] = Inhibition of Candida albicans Fructose-1,6-Bisphosphate Aldolase C292S mutant transfected in Escherichia coli BL21 (DE3) incubated for 3 mins in presence of NADH by spectrophotometric analysis
Candida albicans [11] = assay: Antifungal activity against fluconazole resistant Candida albicans 904 incubated for 48 hrs by CLSI based broth microdilution method; format: functional
Candida albicans [12] = assay: Inhibition of Candida albicans Fructose-1,6-Bisphosphate Aldolase C157S mutant transfected in Escherichia coli BL21 (DE3) assessed as Km by kinetic based analysis
Candida albicans [13] = assay: Inhibition of wild type Candida albicans Fructose-1,6-Bisphosphate Aldolase transfected in Escherichia coli BL21 (DE3) assessed as Km by kinetic based analysis
Candida albicans [14] = assay: Inhibition of Candida albicans Fructose-1,6-Bisphosphate Aldolase C292S mutant transfected in Escherichia coli BL21 (DE3) assessed as Km by kinetic based analysis
Candida albicans [15] = assay: Inhibition of Candida albicans Fructose-1,6-Bisphosphate Aldolase C111S mutant transfected in Escherichia coli BL21 (DE3) assessed as Kcat by kinetic based analysis
Candida albicans [16] = assay: Binding affinity to Candida albicans Fructose-1,6-Bisphosphate Aldolase assessed as Kinact incubated for 12 to 40 mins by NADH-linked enzymatic assay; conditions: time 12-40 min
[17] = Binding affinity to Candida albicans Fructose-1,6-Bisphosphate Aldolase assessed as inhibition constant incubated for 12 to 40 mins by NADH-linked enzymatic assay
Candida albicans [18] = assay: Inhibition of Candida albicans Fructose-1,6-Bisphosphate Aldolase C111S mutant transfected in Escherichia coli BL21 (DE3) assessed as Km by kinetic based analysis
Candida albicans [19] = assay: Inhibition of wild type Candida albicans Fructose-1,6-Bisphosphate Aldolase transfected in Escherichia coli BL21 (DE3) assessed as Kcat by kinetic based analysis
Candida albicans [20] = assay: Inhibition of Candida albicans Fructose-1,6-Bisphosphate Aldolase C292S mutant transfected in Escherichia coli BL21 (DE3) assessed as Kcat/Km by kinetic based analysis
Candida albicans [21] = assay: Inhibition of Candida albicans Fructose-1,6-Bisphosphate Aldolase C292S mutant transfected in Escherichia coli BL21 (DE3) assessed as Kcat by kinetic based analysis
Candida albicans [22] = assay: Inhibition of Candida albicans Fructose-1,6-Bisphosphate Aldolase C157S mutant transfected in Escherichia coli BL21 (DE3) assessed as Kcat by kinetic based analysis
Candida albicans [23] = assay: Inhibition of Candida albicans Fructose-1,6-Bisphosphate Aldolase C157S mutant transfected in Escherichia coli BL21 (DE3) assessed as Kcat/Km by kinetic based analysis
Candida albicans [24] = assay: Binding affinity to Candida albicans Fructose-1,6-Bisphosphate Aldolase assessed as ratio of kinact/Ki incubated for 12 to 40 mins by NADH-linked enzymatic assay; conditions: time 12-40 min
Candida albicans [25] = assay: Inhibition of wild type Candida albicans Fructose-1,6-Bisphosphate Aldolase transfected in Escherichia coli BL21 (DE3) assessed as Kcat/Km by kinetic based analysis
Candida albicans [26] = assay: Inhibition of Candida albicans Fructose-1,6-Bisphosphate Aldolase C111S mutant transfected in Escherichia coli BL21 (DE3) assessed as Kcat/Km by kinetic based analysis
Candida albicans [27] = assay: Inhibition of Candida albicans Fructose-1,6-Bisphosphate Aldolase C292S mutant transfected in Escherichia coli BL21 (DE3) at 500 uM incubated for 3 mins in presence of NADH by spectrophotometric analysis relative to control

Question: For `O=c1c2ccccc2[se]n1-c1ccccc1` [EBSELEN], which LD [1] is on record?
Answer: Its LD is over 4600 mg/kg.

Question: And the MIC80 (Candida albicans [2])?
Answer: Its MIC80 is 2 µg/mL (≈ 7.29 µM).

Question: And the Ratio IC50 (Candida albicans [3])?
Answer: The Ratio IC50 was 80.4.

Question: What about the MIC80 (Candida albicans [4]) of the same compound?
Answer: The MIC80 was 2 µg/mL (≈ 7.29 µM).

Question: And the IC50 [5]?
Answer: Its IC50 is over 32 µM.

Question: What about the IC50 [6] of the same compound?
Answer: The IC50 was 0.0143 µM.

Question: What about the IC50 [7] of the same compound?
Answer: The IC50 was 0.031 µM.

Question: What about the MIC80 (Candida albicans [8]) of the same compound?
Answer: The MIC80 was 2 µg/mL (≈ 7.29 µM).

Question: And the IC50 [9]?
Answer: The IC50 was 0.0726 µM.

Question: And the IC50 [10]?
Answer: Its IC50 is 1.15 µM.

Question: And the MIC80 (Candida albicans [11])?
Answer: Its MIC80 is 2 µg/mL (≈ 7.29 µM).

Question: With `CCCCn1sc2ccccc2c1=O` as the compound, how does the Km (Candida albicans [12]) read?
Answer: Its Km is 17.8 µM.

Question: What about the Km (Candida albicans [13]) of the same compound?
Answer: Its Km is 21.9 µM.

Question: What about the Km (Candida albicans [14]) of the same compound?
Answer: Its Km is 45.7 µM.

Question: What about the kcat (Candida albicans [15]) of the same compound?
Answer: Its kcat is 36.1 s⁻¹.

Question: And the Kinact (Candida albicans [16])?
Answer: The Kinact was 0.00178 s⁻¹.

Question: What about the Ratio IC50 (Candida albicans [3]) of the same compound?
Answer: Its Ratio IC50 is over 28.3.

Question: And the Ki [17]?
Answer: The Ki was 5.96 µM.

Question: And the Km (Candida albicans [18])?
Answer: The Km was 25.1 µM.

Question: What about the kcat (Candida albicans [19]) of the same compound?
Answer: Its kcat is 38.6 s⁻¹.

Question: What about the kcat/Km (Candida albicans [20]) of the same compound?
Answer: The kcat/Km was 500000 M⁻¹ s⁻¹.

Question: And the kcat (Candida albicans [21])?
Answer: The kcat was 24.8 s⁻¹.

Question: What about the kcat (Candida albicans [22]) of the same compound?
Answer: Its kcat is 34.7 s⁻¹.

Question: What about the kcat/Km (Candida albicans [23]) of the same compound?
Answer: Its kcat/Km is 2e+06 M⁻¹ s⁻¹.

Question: And the IC50 [6]?
Answer: The IC50 was 17.7 µM.

Question: And the IC50 [7]?
Answer: Its IC50 is 12.5 µM.

Question: What about the Ratio (Candida albicans [24]) of the same compound?
Answer: The Ratio was 300 M⁻¹ s⁻¹.

Question: What about the kcat/Km (Candida albicans [25]) of the same compound?
Answer: Its kcat/Km is 1.8e+06 M⁻¹ s⁻¹.

Question: And the IC50 [9]?
Answer: Its IC50 is 9.9 µM.

Question: What about the kcat/Km (Candida albicans [26]) of the same compound?
Answer: The kcat/Km was 1.4e+06 M⁻¹ s⁻¹.

Question: What about the IC50 [10] of the same compound?
Answer: Its IC50 is over 500 µM.

Question: What about the inhibition (Candida albicans [27]) of the same compound?
Answer: Its inhibition is under 50%.
